Literature values as cited in US12357587B2, “Cannabinoid monoterpene based pharmaceutical topical composition for musculoskeletal pain” (MOUNTAIN VALLEY MD INC., priority 2022, dated 2025).

Columns and labels:
[1] = purified compound; rat chronic constriction injury

For `NC(=O)N1c2ccccc2C=Cc2ccccc21` [carbamezepine], the “decrease in white blood cell count” value (observed in 7% of patients, usually reversed within the first 4 months of therapy) is listed as 25%, the “increase in the risk of blood dyscrasias” value (patients taking carbamezepine) is listed as “five- to eight” and the “patients with a 25% decrease in white blood cell count” value (usually reversed within the first 4 months of therapy) is listed as 7%.

In the case of `C=C(C)[C@@H]1CCC(C)=C[C@H]1c1c(O)cc(CCCCC)cc1O` [cannabidiol (CBD), cannabidiol], the “relief of neuropathic pain” value [1] is given as “partially relieved neuropathic pain”.
